How the values were obtained:
[1] = tested on: HIV-infected normal human blood lymphocytes (PBLs); assay: HIV test in infected human blood lymphocytes (PBLs), syncytia formation, method of Pauwels et al.; assay type: cell-based; settings: concentration at which 50% (about 10 syncytia) of the virus-induced syncytia were suppressed, day 3 to 6 after infection
Description: The HIV test was carried out with slight modifications by the method of Pauwels et al. (Journal of Virological Methods 20 (1988) 309-321).
Normal human blood lymphocytes (PBLs) were concentrated by means of Ficoll-Hypaque and stimulated with phytohaemagglutinin (90 μg/ml) and interleukin 2 (40 U/ml) in RPMI 1640 and 20% foetal calf serum. For infection with the infectious HIV, PBLs were pelleted and the cell pellet was then suspended in 1 ml of HIV virus adsorption solution and incubated at 37° C. for 1 hour.
The virus adsorption solution was centrifuged and the infected cell pellet was taken up in growth medium such that a concentration of 1×10^5 cells per ml was established. The cells infected in this way were pipetted into the wells of 96-well microtitre plates at a concentration of 1×10^4 cells/well. […]
The test batches were incubated at 37° C. until, in the untreated virus control, the syncytia formation typical for HIV occurred (between day 3 and 6 after infection), which was then evaluated microscopically.
The IC-50 values were determined as the concentration of the treated and infected cells at which 50% (about 10 syncytia) of the virus-induced syncytia were suppressed by treatment with the compound according to the invention.

[2] = target: T1, HIV protease (Human immunodeficiency virus type 1 group M subtype B, UniProt P04585); assay: HIV-specific protease enzyme test (RP-HPLC analysis of synthetic peptide cleavage); assay type: biochemical; settings: purified HIV protease, synthetic peptide imitating a Gag precursor cleavage site; concentration causing 50% inhibition of protease activity
T1 construct: purified HIV protease was incubated with synthetic peptide
Description: This is confirmed using an HIV-specific protease enzyme test.
The results for the examples listed below were determined by the HIV test system described in the following literature reports [cf. Hansen, J., Billich, S., Schulze, T., Sukrow, S. and Molling, K. (1988), EMBO Journal, Vol. 7, No. 6, pages 1785-1791]: purified HIV protease was incubated with synthetic peptide which imitated a cleavage site in the Gag precursor protein and represented an in vivo cleavage site of the HIV protease. The resulting cleavage products of the synthetic peptide were analysed by means of reverse phase high performance liquid chromatography (RP-HPLC). The IC50 values given relate to the substance concentration which causes a 50% inhibition of protease activity under the abovementioned test conditions.

Row | SMILES | IC50 [1] | IC50 [2]
1 | CCOP(=O)(OCC)C1CCCN1C(=O)C[C@H](O)[C@H](CC1CCCCC1)NC(=O)[C@H](Cc1ccccc1)NC(=O)Nc1cccc2ccccc12 (single isomer, unassigned) [Example 16, Diethyl 1-{(3S,4S)-5-cyclohexyl-3-hydroxy-4-(1-napthylaminocarbonyl)phenylalaninyl]aminopentanoyl}-(2R or S)-2-(pyrrolidinyl)phosphonate] | 4.3 µM | –
2 | CCOP(=O)(OCC)C1CCCN1C(=O)C[C@H](O)[C@H](CC1CCCCC1)NC(=O)[C@@H](NC(=O)[C@H](Cc1cccc2ccccc12)CS(=O)(=O)C(C)(C)C)C(C)C (stereo partly drawn) [Example 14, Diethyl 1-{(3S,4S)-4-[(2S)-3-(tert-butylsulphonyl)2-(1-naphthylmethyl)propanoyl]-valinylamino-5-cyclohexyl-3-hydroxypentanoyl}-(2RorS)-2-(pyrrolidinyl)phosphonate] | – | 0.5 µM
3 | CCOP(=O)(OCC)C1CCCN1C(=O)C[C@@H](O)[C@H](CC1CCCCC1)NC(=O)OC(C)(C)C (stereo partly drawn) [Example 28, Diethyl 1-{(3R,4S)-4-[(tert-butoxycarbonyl)amino]-5-cyclohexyl-3-hydroxypentanonyl]-(2R,S)-2-(pyrrolidinyl)phosphonate] | – | 10 µM

Reference: patent US5147865A, “Phosphonopyrrolidine- and piperidine-containing pseudopeptides of the statin type, a process for their preparation and their use as medicaments against retroviruses” (Bayer Aktiengesellschaft, priority 1990, dated 1992)
